The source of these data is ChEMBL document CHEMBL4219185, “DNA sequence-specific ligands. XVII. Synthesis, spectral properties, virological and biochemical studies of fluorescent dimeric bisbenzimidazoles DBA(n)” (Bioorg Med Chem, 2018).

Active and inactive are the calls of the source. The calls are words filed in the database; no cut-off is given here. Bounds are passed on as bounds.

Series [1] relates to Calf thymus DNA. In words: Binding affinity to calf thymus DNA assessed as bathochromic shift at 4.4 x 10^-6M by absorption spectral analysis. Type of series: nucleic-acid assay. The following applies: Bos taurus.
In another series the test system is HCT-116. In words: Cytotoxicity against human HCT116 cells assessed as reduction in cell viability by MTT assay. It counts as cell-based.
Series [2] concerns Calf thymus DNA. In words: Binding affinity to calf thymus DNA at 1 uM by fluorescence spectral analysis. Type of series: nucleic-acid assay. The following applies: Bos taurus.
The test system of series [3] is Calf thymus DNA. Description: Binding affinity to calf thymus DNA assessed as hypochromic shift at 4.4 x 10^-6M by absorption spectral analysis. It counts as nucleic-acid assay. The following applies: Bos taurus.
Series [4] deals with Calf thymus DNA. Description: Binding affinity to calf thymus DNA groove using DNA cholesteric liquid crystal dispersions assessed as positive band appearance at 1.1 to 5.45 uM by CD spectral analysis. It counts as nucleic-acid assay. The conditions noted are these: Bos taurus.
Series [5] is described as follows: Drug uptake in human U251 cell nucleus treated at 10 to 20 uM after 20 to 40 hrs by fluorescent microscopic method. The following applies: u-251, 20 µM. It counts as ADME, subcellular.
Series [6] concerns DNA. In words: Binding affinity to Escherichia coli supercoiled pHOT1 DNA assessed as inhibition of topoisomerase-1-mediated relaxation of supercoiled DNA at 2.5 to 20 uM after 30 mins by agarose gel electrophoresis method. Type of series: nucleic-acid assay.
The subject of the next series is MCF-10A. In words: Cytotoxicity against human MCF10A cells assessed as reduction in cell viability by MTT assay. Type of series: cell-based.
Series [7] can be described thus: Cytotoxicity against human […] cells assessed as reduction in cell viability by MTT assay. Type of series: cell-based.
For another series, the system named is MCF7. Description: Cytotoxicity against human MCF7 cells assessed as reduction in cell viability by MTT assay. It counts as cell-based.
The test system of series [8] is Calf thymus DNA. In words: Binding affinity to calf thymus DNA at 0.95 uM by fluorescence spectral analysis. Type of series: nucleic-acid assay. The conditions noted are these: Bos taurus.
Series [9] concerns Calf thymus DNA. In words: Binding affinity to calf thymus DNA groove using DNA cholesteric liquid crystal dispersions assessed as positive band appearance at 0.47 to 4.73 uM by CD spectral analysis. The following applies: Bos taurus. It counts as nucleic-acid assay.
Series [10] relates to Calf thymus DNA. In words: Binding affinity to calf thymus DNA assessed as bathochromic shift at 2.38 x 10^-6M by absorption spectral analysis. The following applies: Bos taurus. Type of series: nucleic-acid assay.
In series [11] the test system is Calf thymus DNA. Description: Binding affinity to calf thymus DNA assessed as hypochromic shift at 2.38 x 10^-6M by absorption spectral analysis. Type of series: nucleic-acid assay. The conditions noted are these: Bos taurus.
Series [12] has as its system Human alphaherpesvirus 1. In words: Antiviral activity against Herpes simplex virus-1 infected in cells. It counts as functional, organism-based.
Series [13] relates to Human alphaherpesvirus 1. Description: Antiviral activity against Herpes simplex virus-1 strain F infected in African green monkey Vero cells assessed as late protein gb level at 50 ug/ml after 48 hrs by immunostaining based luminescent microscopic method (reference value: 95.6%). It counts as functional.
Series [14] deals with DNA. Description: Binding affinity to Escherichia coli supercoiled pHOT1 DNA assessed as inhibition of topoisomerase-1-mediated relaxation of supercoiled DNA at 10 uM after 30 mins by agarose gel electrophoresis method. It counts as nucleic-acid assay.
The subject of a further series is Cytomegalovirus. Description: Antiviral activity against CMV infected in cells. It counts as functional, organism-based.
For series [15], the target named is Human immunodeficiency virus type 1 integrase (Human immunodeficiency virus 1, UniProt Q7ZJM1). In words: Inhibition of HIV1 integrase.
Sequence of Human immunodeficiency virus type 1 integrase (Q7ZJM1 whole entry): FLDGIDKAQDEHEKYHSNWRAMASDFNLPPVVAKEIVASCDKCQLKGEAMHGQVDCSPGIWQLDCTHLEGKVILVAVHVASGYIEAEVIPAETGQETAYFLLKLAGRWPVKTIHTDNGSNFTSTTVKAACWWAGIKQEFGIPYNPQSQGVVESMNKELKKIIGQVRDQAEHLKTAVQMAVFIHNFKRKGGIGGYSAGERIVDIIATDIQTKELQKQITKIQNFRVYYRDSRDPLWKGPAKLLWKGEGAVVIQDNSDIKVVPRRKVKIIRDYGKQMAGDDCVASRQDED

Take `CN(C)CCCNC(=O)c1ccc2nc(-c3ccc4nc(CNC(=O)CCCCCC(=O)NCc5nc6ccc(-c7nc8ccc(C(=O)NCCCN(C)C)cc8[nH]7)cc6[nH]5)[nH]c4c3)[nH]c2c1`: the outcome with Calf thymus DNA [1], in the series with Calf thymus DNA [2], in the series with Calf thymus DNA [3] and in the series with Calf thymus DNA [4] was Active. Besides, the 50% inhibitory concentration (IC50) (in the series with HCT-116; in the series with MCF-10A; in [7]; in the series on MCF7) was above 240 µM each time. For the same molecule, the Drug uptake result in series [5] is listed as “Active”. The inhibition result in the series on DNA [6] was “Active”.
Regarding `CN1CCN(c2ccc3nc(-c4ccc5nc(CNC(=O)CCC(=O)NCc6nc7ccc(-c8nc9ccc(N%10CCN(C)CC%10)cc9[nH]8)cc7[nH]6)[nH]c5c4)[nH]c3c2)CC1`, the IC50 (with HCT-116; in the series on MCF-10A; in [7]; in the series with MCF7) was 20 to 90 µM each time.
On to `CN(C)CCCNC(=O)c1ccc2nc(-c3ccc4nc(CNC(=O)CCCCCCCC(=O)NCc5nc6ccc(-c7nc8ccc(C(=O)NCCCN(C)C)cc8[nH]7)cc6[nH]5)[nH]c4c3)[nH]c2c1`, for which the outcome in the series on Calf thymus DNA [8], in the series on Calf thymus DNA [9], in the series on Calf thymus DNA [10], in the series with Calf thymus DNA [11] and with Human alphaherpesvirus 1 [12] was Active. For the same molecule, the IC50 (in the series on HCT-116; in the series with MCF-10A; in [7]; in the series on MCF7) was above 240 µM throughout. Besides, the Drug uptake entry in series [5] is “Active”. Moreover, the inhibition entry in the series with DNA [6] is “Active”. In addition, the Activity with Human alphaherpesvirus 1 [13] was 10%.
Consider `CN(C)CCCNC(=O)c1ccc2nc(-c3ccc4nc(CNC(=O)CCCC(=O)NCc5nc6ccc(-c7nc8ccc(C(=O)NCCCN(C)C)cc8[nH]7)cc6[nH]5)[nH]c4c3)[nH]c2c1`, for which the 50% inhibitory concentration (IC50) (with HCT-116; in the series with MCF-10A; in series [7]; with MCF7) was above 240 µM throughout. Besides, the Drug uptake entry in series [5] is recorded as “Active”. In addition, the inhibition result with DNA [6] is “Active”.
Take `CN1CCN(c2ccc3nc(-c4ccc5nc(CNC(=O)CCCCCC(=O)NCc6nc7ccc(-c8nc9ccc(N%10CCN(C)CC%10)cc9[nH]8)cc7[nH]6)[nH]c5c4)[nH]c3c2)CC1`: the IC50 (with HCT-116; with MCF-10A; in series [7]; in the series on MCF7) was 20 to 90 µM each time. The inhibition entry in the series on DNA [6] was “Active”.
As to `CN1CCN(c2ccc3nc(-c4ccc5nc(CNC(=O)CCCCC(=O)NCc6nc7ccc(-c8nc9ccc(N%10CCN(C)CC%10)cc9[nH]8)cc7[nH]6)[nH]c5c4)[nH]c3c2)CC1`, the IC50 (in the series with HCT-116; in the series on MCF-10A; in series [7]; with MCF7) was 20 to 90 µM in each case.
On to `CN(C)CCCNC(=O)c1ccc2nc(-c3ccc4nc(CNC(=O)CC(=O)NCc5nc6ccc(-c7nc8ccc(C(=O)NCCCN(C)C)cc8[nH]7)cc6[nH]5)[nH]c4c3)[nH]c2c1`, for which the IC50 (with HCT-116; with MCF-10A; in series [7]; in the series on MCF7) was above 240 µM in each case. Also, the inhibition result in the series with DNA [6] is “Active”. Also, the result in the series with Human alphaherpesvirus 1 [12] was Active.
Regarding `CN1CCN(c2ccc3nc(-c4ccc5nc(CNC(=O)CC(=O)NCc6nc7ccc(-c8nc9ccc(N%10CCN(C)CC%10)cc9[nH]8)cc7[nH]6)[nH]c5c4)[nH]c3c2)CC1`, the IC50 (in the series on HCT-116; with MCF-10A; in [7]; with MCF7) was 20 to 90 µM each time. The inhibition entry with DNA [6] was “Active”.
With `CN1CCN(c2ccc3nc(-c4ccc5nc(CNC(=O)CCCCCCC(=O)NCc6nc7ccc(-c8nc9ccc(N%10CCN(C)CC%10)cc9[nH]8)cc7[nH]6)[nH]c5c4)[nH]c3c2)CC1`, the IC50 (with HCT-116; in the series with MCF-10A; in series [7]; in the series on MCF7) was 20 to 90 µM in each case.
Regarding `Nc1nc2c(ncn2COCCO)c(=O)[nH]1` [ACYCLOVIR], in the series on Human alphaherpesvirus 1 [13], the Activity is reported as 0.1%.
As to `CN1CCN(c2ccc3nc(-c4ccc5nc(CNC(=O)CCCCCCCCCCCCC(=O)NCc6nc7ccc(-c8nc9ccc(N%10CCN(C)CC%10)cc9[nH]8)cc7[nH]6)[nH]c5c4)[nH]c3c2)CC1`, the half-inhibitory concentration (IC50) (in the series with HCT-116; with MCF-10A; in [7]; in the series with MCF7) was 20 to 90 µM each time.
As to `CN1CCN(c2ccc3nc(-c4ccc5nc(CNC(=O)CCCC(=O)NCc6nc7ccc(-c8nc9ccc(N%10CCN(C)CC%10)cc9[nH]8)cc7[nH]6)[nH]c5c4)[nH]c3c2)CC1`, the inhibition result in the series with DNA [14] is “Active”. Further, the IC50 (in the series on HCT-116; with MCF-10A; in [7]; in the series on MCF7) was 20 to 90 µM each time.
Take `CN1CCN(c2ccc3nc(-c4ccc5nc(CNC(=O)CCCCCCCCC(=O)NCc6nc7ccc(-c8nc9ccc(N%10CCN(C)CC%10)cc9[nH]8)cc7[nH]6)[nH]c5c4)[nH]c3c2)CC1`: the 50% inhibitory concentration (IC50) (in the series on HCT-116; with MCF-10A; in [7]; in the series on MCF7) was 20 to 90 µM throughout.
With `CN(C)CCCNC(=O)c1ccc2nc(-c3ccc4nc(CNC(=O)CCCCCCCCCC(=O)NCc5nc6ccc(-c7nc8ccc(C(=O)NCCCN(C)C)cc8[nH]7)cc6[nH]5)[nH]c4c3)[nH]c2c1`, the IC50 (with HCT-116; in the series with MCF-10A; in series [7]; with MCF7) was above 240 µM in each case. Further, the Drug uptake result in series [5] is “Active”. Also, the inhibition entry in the series on DNA [6] was “Active”.
For `CN1CCN(c2ccc3nc(-c4ccc5nc(CNC(=O)CCCCCCCCCCCC(=O)NCc6nc7ccc(-c8nc9ccc(N%10CCN(C)CC%10)cc9[nH]8)cc7[nH]6)[nH]c5c4)[nH]c3c2)CC1`, the concentration for half-maximal inhibition (IC50) (with HCT-116; with MCF-10A; in [7]; in the series on MCF7) was 20 to 90 µM in each case.
Regarding `CN1CCN(c2ccc3nc(-c4ccc5nc(CNC(=O)CCCCCCCC(=O)NCc6nc7ccc(-c8nc9ccc(N%10CCN(C)CC%10)cc9[nH]8)cc7[nH]6)[nH]c5c4)[nH]c3c2)CC1`, the IC50 (with HCT-116; with MCF-10A; in [7]; with MCF7) was 20 to 90 µM each time. Besides, the inhibition entry in the series with DNA [6] was “Active”.
Consider `CN1CCN(c2ccc3nc(-c4ccc5nc(CNC(=O)CCCCCCCCCCC(=O)NCc6nc7ccc(-c8nc9ccc(N%10CCN(C)CC%10)cc9[nH]8)cc7[nH]6)[nH]c5c4)[nH]c3c2)CC1`, for which the IC50 (in the series on HCT-116; with MCF-10A; in series [7]; with MCF7) was 20 to 90 µM each time.
`CN(C)CCCNC(=O)c1ccc2nc(-c3ccc4nc(CNC(=O)CCCCCCCCCCCC(=O)NCc5nc6ccc(-c7nc8ccc(C(=O)NCCCN(C)C)cc8[nH]7)cc6[nH]5)[nH]c4c3)[nH]c2c1`: the half-maximal inhibitory concentration (IC50) was above 240 µM in the series on HCT-116; 0.06 µM in series [15]; above 240 µM in the series on MCF-10A; above 240 µM in series [7]; above 240 µM in the series on MCF7. Also, the outcome in the series on Cytomegalovirus and with Human alphaherpesvirus 1 [12] was Active. Further, the Drug uptake result in series [5] was “Active”. Besides, the inhibition result with DNA [6] was “Active”.
Take `CN1CCN(c2ccc3nc(-c4ccc5nc(CNC(=O)CCCCCCCCCC(=O)NCc6nc7ccc(-c8nc9ccc(N%10CCN(C)CC%10)cc9[nH]8)cc7[nH]6)[nH]c5c4)[nH]c3c2)CC1`: the IC50 (in the series with HCT-116; in the series on MCF-10A; in [7]; in the series with MCF7) was 20 to 90 µM throughout.
